Experimental data published in ChEMBL document CHEMBL1201862, “PubChem BioAssay data set” (2004).
Activity calls are given as the source filed them.

Assays:
[1] = miR-122 activators in hepatoma reporter cells, dose response, cell-based, Huh7 psiCHECK-miR122, Renilla luciferase, cherry-picked (AID 651956); format: functional;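 further: huh7 hepatoma cells stably carrying a psiCHECK-2 miR-122 sensor plasmid; renilla luciferase signal reporting endogenous miR-122 activity after 48 h compound exposure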
[2] = HEK293T cytotoxicity, dose response, cytotoxicity control for miR-122 modulator project, cell-based, inhibitor set, cherry-pick, set 2 (AID 720697); format: functional
[3] = target: T1, Corticotropin-releasing factor receptor 2/Corticotropin-releasing factor-binding protein (Homo sapiens, UniProt P24387+Q13324); assay: Dose Response confirmation of uHTS hits for small molecule antagonists of the CRF-binding protein and CRF-R2 receptor complex.; format: functional; settings: read-out: IC50_Mean
T1 sequence (Q13324 whole entry): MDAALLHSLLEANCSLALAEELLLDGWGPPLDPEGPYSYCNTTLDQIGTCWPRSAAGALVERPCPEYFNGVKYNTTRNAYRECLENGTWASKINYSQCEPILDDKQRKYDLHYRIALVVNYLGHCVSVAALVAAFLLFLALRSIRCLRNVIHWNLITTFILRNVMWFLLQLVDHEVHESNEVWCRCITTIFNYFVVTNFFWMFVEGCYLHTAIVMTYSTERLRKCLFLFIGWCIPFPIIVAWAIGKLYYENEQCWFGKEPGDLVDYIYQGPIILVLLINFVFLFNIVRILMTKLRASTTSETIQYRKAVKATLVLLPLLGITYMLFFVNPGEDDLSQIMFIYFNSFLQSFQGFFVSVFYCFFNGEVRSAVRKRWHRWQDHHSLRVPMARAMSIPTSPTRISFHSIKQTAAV
T1 sequence (P24387 whole entry): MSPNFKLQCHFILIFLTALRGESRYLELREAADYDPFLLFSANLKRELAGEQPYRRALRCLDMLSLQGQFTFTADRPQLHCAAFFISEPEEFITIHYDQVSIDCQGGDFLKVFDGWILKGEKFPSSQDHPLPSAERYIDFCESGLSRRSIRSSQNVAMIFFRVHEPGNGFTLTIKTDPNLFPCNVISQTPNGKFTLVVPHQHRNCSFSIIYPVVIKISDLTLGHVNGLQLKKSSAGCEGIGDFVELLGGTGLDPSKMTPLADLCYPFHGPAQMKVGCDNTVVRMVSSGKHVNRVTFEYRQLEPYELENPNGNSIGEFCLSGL

[4] = target: T1, Corticotropin-releasing factor receptor 2/Corticotropin-releasing factor-binding protein; assay: activators of CRF receptor 2 with binding protein – uHTS hits, confirmation (AID 602473); format: functional; settings: read-out: EC50_Mean
[5] = CRF-BP/CRF-R2 complex antagonists, dose response, cell-based, uHTS hits, 384-well (AID 651639); format: functional, Homo sapiens; settings: read-out: IC50_Mean
[6] = off-target signal loss in HeLa-CEM21 co-culture – HeLa F-luc CTL cells, cherry-picked, counter-screen for HIV-1 Env fusion inhibitor project, dose response (AID 652040); format: functional, cell-based;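 further: potency for signal decrease marking cytotoxic or nonspecific inhibition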
[7] = inhibitors of HIV Env-driven cell fusion, dose response, cherry-pick (AID 652057); format: functional, cell-based
[8] = inhibitors of clade B AD8 Env fusion, dose response, cell-based, cherry-pick (AID 652062); format: functional;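 further: luciferase signal from cell-cell fusion driven by HIV-1 clade B AD8 Env; potency is for inhibitors of fusion seen as a drop in luminescence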
[9] = ZM109 Env clade C HIV-1 fusion inhibitors, dose response, HeLa effector, CEM target cells, luciferase, cherry-pick (AID 652058); format: functional, cell-based
[10] = target: T2, Sentrin-specific protease 8 (Homo sapiens, UniProt Q96LD8); format: functional
T2 sequence (Q96LD8 whole entry): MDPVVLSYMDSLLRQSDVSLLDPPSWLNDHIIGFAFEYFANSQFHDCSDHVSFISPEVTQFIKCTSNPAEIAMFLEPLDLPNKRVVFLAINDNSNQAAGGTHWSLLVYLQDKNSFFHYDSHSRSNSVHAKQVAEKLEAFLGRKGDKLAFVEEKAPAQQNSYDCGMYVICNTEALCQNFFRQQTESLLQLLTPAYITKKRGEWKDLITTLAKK

[11] = target: T2, Sentrin-specific protease 8; format: functional; remark: listed apart in the source
[12] = target: T3, Rac GTPase-activating protein 1 (Homo sapiens, UniProt Q9H0H5); assay: MgcRacGAP GTPase-activating activity inhibitors, confirmation, biochemical, ADP Hunter fluorescence, primary and confirmatory (AID 624330); format: functional
T3 sequence (Q9H0H5 whole entry): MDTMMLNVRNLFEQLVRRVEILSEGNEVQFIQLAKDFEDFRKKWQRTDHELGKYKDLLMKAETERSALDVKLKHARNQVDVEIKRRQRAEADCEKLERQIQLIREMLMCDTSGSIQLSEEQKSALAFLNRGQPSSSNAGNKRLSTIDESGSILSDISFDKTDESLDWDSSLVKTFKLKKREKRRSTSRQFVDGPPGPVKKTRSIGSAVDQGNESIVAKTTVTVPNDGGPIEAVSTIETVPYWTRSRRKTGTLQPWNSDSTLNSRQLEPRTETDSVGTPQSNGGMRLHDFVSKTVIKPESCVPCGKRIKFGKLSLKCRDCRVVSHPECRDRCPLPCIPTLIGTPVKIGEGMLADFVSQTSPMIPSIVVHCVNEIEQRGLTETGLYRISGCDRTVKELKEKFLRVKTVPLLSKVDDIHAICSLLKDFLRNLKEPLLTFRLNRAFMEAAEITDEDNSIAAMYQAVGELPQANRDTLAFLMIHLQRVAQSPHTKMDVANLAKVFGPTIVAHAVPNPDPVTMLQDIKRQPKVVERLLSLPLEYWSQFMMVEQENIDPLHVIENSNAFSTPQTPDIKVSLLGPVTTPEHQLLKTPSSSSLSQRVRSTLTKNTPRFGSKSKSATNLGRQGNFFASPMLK

[13] = target: T4, Probable nicotinate-nucleotide adenylyltransferase (Staphylococcus aureus (strain N315), UniProt P65502); format: functional, Staphylococcus aureus subsp. aureus N315; settings: read-out: IC50_Mean;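 on IC50 Mean: confirmatory dose-response retesting of NadD inhibitor hits first found in an ultra-high-throughput screen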
T4 sequence (P65502 whole entry): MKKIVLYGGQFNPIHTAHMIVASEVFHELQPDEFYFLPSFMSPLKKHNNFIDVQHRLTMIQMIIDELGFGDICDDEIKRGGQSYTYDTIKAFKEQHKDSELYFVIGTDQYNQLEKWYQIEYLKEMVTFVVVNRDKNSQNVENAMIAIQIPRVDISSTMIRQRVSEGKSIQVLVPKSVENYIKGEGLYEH

Protein RecA = target: T5, Protein RecA (Mycobacterium tuberculosis, UniProt P9WHJ3); assay: Fluorescence Cell-Free Homogeneous Dose Retest to Identify Inhibitors of RecA-Intein Splicing Activity. [Related pubchem assays (depositor defined):AID2097, AID2223, AID489010, AID492950]; format: functional
T5 sequence (P9WHJ3 whole entry): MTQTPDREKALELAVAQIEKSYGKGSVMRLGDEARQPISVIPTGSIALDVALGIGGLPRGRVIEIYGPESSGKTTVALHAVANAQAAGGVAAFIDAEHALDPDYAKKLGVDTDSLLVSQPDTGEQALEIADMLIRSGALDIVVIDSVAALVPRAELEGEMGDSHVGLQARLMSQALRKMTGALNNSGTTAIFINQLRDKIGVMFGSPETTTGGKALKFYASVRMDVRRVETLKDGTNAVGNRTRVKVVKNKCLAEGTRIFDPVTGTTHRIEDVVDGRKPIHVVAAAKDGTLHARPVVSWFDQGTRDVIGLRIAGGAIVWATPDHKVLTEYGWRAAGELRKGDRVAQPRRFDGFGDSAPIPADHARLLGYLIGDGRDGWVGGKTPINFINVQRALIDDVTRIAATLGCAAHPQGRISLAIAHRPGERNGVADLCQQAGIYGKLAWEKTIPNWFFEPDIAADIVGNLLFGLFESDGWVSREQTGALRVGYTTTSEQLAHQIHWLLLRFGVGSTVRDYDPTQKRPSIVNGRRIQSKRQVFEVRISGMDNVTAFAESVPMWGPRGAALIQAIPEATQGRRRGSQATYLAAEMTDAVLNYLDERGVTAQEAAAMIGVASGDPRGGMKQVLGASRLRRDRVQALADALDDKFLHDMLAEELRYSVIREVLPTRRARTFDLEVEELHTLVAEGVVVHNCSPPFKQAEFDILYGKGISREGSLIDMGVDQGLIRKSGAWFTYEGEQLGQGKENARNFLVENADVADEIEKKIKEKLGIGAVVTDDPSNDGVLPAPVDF

[14] = target: T4, Probable nicotinate-nucleotide adenylyltransferase; format: functional, Staphylococcus aureus subsp. aureus N315
[15] = target: T6, Replicative DNA helicase DnaB (Mycobacterium tuberculosis, UniProt P9WMR3); assay: DnaB intein splicing inhibitors, dose response, biochemical, cell-free fluorescence (AID 449749); format: functional
T6 sequence (P9WMR3 whole entry): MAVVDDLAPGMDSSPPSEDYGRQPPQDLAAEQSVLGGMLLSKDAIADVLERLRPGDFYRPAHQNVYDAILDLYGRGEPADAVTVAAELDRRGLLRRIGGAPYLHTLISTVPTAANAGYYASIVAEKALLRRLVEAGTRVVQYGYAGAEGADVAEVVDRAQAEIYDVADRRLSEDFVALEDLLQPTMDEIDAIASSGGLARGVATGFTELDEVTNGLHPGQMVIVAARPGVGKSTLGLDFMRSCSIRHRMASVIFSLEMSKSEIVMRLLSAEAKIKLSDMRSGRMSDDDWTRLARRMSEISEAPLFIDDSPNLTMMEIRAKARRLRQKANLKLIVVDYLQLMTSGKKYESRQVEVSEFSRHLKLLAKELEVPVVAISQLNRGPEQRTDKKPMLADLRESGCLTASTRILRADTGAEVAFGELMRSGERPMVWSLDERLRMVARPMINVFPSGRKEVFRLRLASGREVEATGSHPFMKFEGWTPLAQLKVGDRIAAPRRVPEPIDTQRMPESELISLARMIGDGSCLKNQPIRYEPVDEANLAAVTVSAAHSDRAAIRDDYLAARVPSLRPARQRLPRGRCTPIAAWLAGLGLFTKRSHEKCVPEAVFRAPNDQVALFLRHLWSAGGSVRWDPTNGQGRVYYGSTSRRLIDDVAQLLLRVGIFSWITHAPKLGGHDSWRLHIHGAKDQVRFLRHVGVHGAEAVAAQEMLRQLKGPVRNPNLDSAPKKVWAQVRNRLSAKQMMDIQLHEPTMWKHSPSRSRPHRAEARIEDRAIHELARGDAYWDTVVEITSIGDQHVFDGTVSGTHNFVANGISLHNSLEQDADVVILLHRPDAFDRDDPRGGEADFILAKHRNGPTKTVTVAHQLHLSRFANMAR

Fatty acid synthase [16] = target: T7, Fatty acid synthase (Homo sapiens, UniProt P49327); assay: FAS thioesterase domain inhibitors, dose response, biochemical, endpoint fluorescence intensity, uHTS hits (AID 624327); format: functional;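 further: fluorescence from hydrolysis of an O-methyl fluorescein acyl ester substrate by the enzyme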
T7 sequence (P49327 whole entry, the tested form may be a part): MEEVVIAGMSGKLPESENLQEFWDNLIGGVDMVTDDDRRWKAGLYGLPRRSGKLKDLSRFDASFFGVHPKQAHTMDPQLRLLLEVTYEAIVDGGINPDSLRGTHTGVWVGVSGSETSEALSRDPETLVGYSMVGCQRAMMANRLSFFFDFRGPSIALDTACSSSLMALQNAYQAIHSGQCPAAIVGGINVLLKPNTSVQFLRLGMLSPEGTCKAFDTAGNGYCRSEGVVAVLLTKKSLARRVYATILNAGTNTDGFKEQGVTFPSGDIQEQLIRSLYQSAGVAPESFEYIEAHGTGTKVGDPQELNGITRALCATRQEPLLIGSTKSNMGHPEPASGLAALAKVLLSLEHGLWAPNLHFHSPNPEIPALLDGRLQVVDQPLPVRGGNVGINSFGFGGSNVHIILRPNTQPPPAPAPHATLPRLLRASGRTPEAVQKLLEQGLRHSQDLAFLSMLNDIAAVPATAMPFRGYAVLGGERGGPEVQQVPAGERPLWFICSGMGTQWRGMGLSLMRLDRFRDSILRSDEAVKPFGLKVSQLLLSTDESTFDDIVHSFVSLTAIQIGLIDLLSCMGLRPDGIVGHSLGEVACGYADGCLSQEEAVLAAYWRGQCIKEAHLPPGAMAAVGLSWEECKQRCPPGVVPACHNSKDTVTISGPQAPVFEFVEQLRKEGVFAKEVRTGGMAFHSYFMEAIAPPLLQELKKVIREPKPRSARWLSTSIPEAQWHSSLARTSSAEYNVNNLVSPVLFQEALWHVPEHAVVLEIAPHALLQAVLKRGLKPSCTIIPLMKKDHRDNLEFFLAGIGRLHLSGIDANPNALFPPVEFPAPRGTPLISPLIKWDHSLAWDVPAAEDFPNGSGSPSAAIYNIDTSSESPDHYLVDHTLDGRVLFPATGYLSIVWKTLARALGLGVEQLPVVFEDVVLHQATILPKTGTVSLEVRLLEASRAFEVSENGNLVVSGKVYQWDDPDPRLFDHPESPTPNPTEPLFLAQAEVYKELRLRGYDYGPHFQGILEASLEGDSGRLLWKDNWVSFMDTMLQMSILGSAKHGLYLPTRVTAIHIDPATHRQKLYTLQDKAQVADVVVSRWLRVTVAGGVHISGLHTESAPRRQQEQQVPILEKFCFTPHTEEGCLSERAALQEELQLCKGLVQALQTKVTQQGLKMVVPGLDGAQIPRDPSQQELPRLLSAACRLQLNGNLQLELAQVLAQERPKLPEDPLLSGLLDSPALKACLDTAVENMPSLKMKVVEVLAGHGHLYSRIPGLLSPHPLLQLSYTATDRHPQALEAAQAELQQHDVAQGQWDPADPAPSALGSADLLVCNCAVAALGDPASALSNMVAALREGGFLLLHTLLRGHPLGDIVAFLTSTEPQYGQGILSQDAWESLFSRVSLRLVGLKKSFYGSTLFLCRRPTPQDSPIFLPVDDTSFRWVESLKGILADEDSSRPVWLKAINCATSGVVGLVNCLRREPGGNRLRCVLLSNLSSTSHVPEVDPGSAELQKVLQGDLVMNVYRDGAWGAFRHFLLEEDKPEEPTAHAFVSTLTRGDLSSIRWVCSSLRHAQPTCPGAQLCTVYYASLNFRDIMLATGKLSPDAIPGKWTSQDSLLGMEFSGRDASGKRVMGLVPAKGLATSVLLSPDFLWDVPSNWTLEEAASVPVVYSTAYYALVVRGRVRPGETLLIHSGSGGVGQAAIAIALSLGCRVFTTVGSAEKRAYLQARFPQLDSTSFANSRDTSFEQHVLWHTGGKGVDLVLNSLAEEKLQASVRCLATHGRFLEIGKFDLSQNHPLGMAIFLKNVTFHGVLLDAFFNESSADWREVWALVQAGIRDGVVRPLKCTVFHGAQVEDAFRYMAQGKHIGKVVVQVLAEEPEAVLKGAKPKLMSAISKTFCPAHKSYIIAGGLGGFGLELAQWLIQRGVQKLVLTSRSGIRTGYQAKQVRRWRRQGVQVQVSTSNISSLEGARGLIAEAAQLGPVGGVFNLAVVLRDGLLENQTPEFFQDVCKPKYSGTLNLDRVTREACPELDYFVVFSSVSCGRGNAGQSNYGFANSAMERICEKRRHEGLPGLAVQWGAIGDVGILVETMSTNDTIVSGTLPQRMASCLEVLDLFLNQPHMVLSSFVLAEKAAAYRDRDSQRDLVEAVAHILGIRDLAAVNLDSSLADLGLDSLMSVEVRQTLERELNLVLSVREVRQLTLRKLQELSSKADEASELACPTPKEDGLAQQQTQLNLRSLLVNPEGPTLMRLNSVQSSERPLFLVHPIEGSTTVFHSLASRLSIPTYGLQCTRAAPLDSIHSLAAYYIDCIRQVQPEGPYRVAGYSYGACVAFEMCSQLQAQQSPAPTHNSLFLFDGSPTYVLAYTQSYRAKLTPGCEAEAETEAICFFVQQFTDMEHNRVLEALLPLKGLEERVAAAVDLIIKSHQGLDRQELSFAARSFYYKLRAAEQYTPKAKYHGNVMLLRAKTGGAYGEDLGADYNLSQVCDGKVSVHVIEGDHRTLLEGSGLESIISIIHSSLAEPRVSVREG

Fatty acid synthase [17] = target: T7, Fatty acid synthase; assay: FAS thioesterase domain inhibitors, dose response, biochemical, kinetic fluorescence intensity (AID 624326); format: functional;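 further: rate of fluorescence rise from hydrolysis of a fluorogenic O-methyl fluorescein ester substrate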

COc1ccccc1C#Cc1ccc2c(c1)O[C@H](CN(C)Cc1cccnc1)[C@@H](C)CN([C@@H](C)CO)S2(=O)=O
AC50 [1]: 25.6 µM (active) | AC50 [2]: 0.944 µM (active)

Cc1ccc(-n2nnnc2SCc2nnc(-c3ccccc3Br)o2)c(C)c1
IC50 [3]: 2.72 µM (active) | EC50 [4]: > 53 µM (inactive) | IC50 [5]: 10.7 µM (active)

C=CCN(Cc1ccc(OC)c(OC)c1)C(=O)c1cc2cc(F)ccc2[nH]1
AC50 [6]: 11.8 µM (active) | AC50 [7]: 6.22 µM (active) | AC50 [8]: 10.5 µM (active) | AC50 [9]: 9.08 µM (active)

COc1ccc(NCc2ccc([N+](=O)[O-])s2)c(OC)c1
IC50 [10]: 13.5 µM (active) | IC50 [11]: 11.6 µM (active) | IC50 [12]: 34.4 µM (active)

CCCN(CC(=O)Nc1ccccc1OC)C(=O)c1cccc(S(=O)(=O)NCc2ccccc2)c1
AC50 [6]: 5.73 µM (active) | AC50 [7]: 4.37 µM (active) | AC50 [8]: 39.2 µM (active) | AC50 [9]: 10.3 µM (active)

COCC(=O)N(C)C[C@H]1Oc2cc(-c3ccccc3F)ccc2S(=O)(=O)N([C@@H](C)CO)C[C@H]1C
AC50 [1]: 3.15 µM (active) | AC50 [2]: 8.35 µM (active)

O=C1SCCN1N=Cc1ccc([N+](=O)[O-])o1
IC50 [10]: > 100 µM (inactive) | IC50 [11]: 61 µM (inactive)

CC1=NN(c2ccc(C)c(C)c2)C(=O)C1C(c1cccc(O)c1)C1C(=O)N(c2ccc(C)c(C)c2)N=C1C (centres undefined)
IC50 [13]: 15.1 µM (active) | IC50 [10]: 7.94 µM (active) | EC50 (Protein RecA): 0.468 µM (active) | IC50 [14]: 6.63 µM (active) | IC50 [11]: 14.7 µM (active) | AC50 [15]: 1.14 µM (active)

COc1ccc([N+](=O)[O-])cc1N(CC(O)Cn1nnc2ccccc21)S(=O)(=O)c1ccc(C)cc1 (centres undefined)
IC50 (Fatty acid synthase [16]): 10.8 µM (active) | IC50 (Fatty acid synthase [17]): 8.07 µM (active) | IC50 [3]: 4.39 µM (active) | EC50 [4]: > 53 µM (inactive) | IC50 [5]: 8.96 µM (active)

O=C(c1ccc(S(=O)(=O)Nc2ccc(F)cc2)cc1)N1CCN(C(=O)c2ccco2)CC1
AC50 [6]: 24.4 µM (active) | AC50 [8]: 2.86 µM (active) | AC50 [9]: 10.4 µM (active)
